Data published in patent publication US8192962B2, “Processes for detecting toxic substances” (Daikin Industries, Ltd., priority 2001, dated 2012).

Tested on: Metabolism protein genes
Assay: DNA chip mRNA expression in yeast, metabolism protein genes (Table 7)
Format: cell-based, Saccharomyces cerevisiae S288C
Protocol: Yeast (Saccharomyces cerevisiae S288C (α SUC2mal mel gap2 CUP1)) were incubated at 25° C. on YPD medium (yeast extract 1%, polypepton 2%, glucose 2%). One of toxic chemical substances was added to the cells at logarithmic growth phase, and the cells were further incubated for two hours. Cells were cultured without any chemical substance in the same condition, and were used as control. Concentrations of the chemical substances were defined to inhibit the growth of the yeast but not lead to death.
After completion of the incubation, the culture was centrifuged to collect the cells. To the cells, sodium acetate buffer (50 mM sodium acetate, 10 mM EDTA, 1% SDS) was added, and the mixture was shaken at 65° C. for five minutes, followed by returning to room temperature, and obtaining the supernatant, of which the procedures were repeated two times. To the supernatant, ½ amount of a solution of phenol/chloroform was added, and the mixture was centrifuged to give a supernatant, which was added with an equal amount of chloroform, and the mixture was centrifuged to give a supernatant. To the supernatant, an equal amount of isopropanol containing 0.3 M sodium acetate was added, and the mixture was allowed to stand at room temperature for 30 minutes, after which the mixture was centrifuged to give a sediment of the whole RNAs. Seventy % ethanol was added to the sediment, and the mixture was again centrifuged to give a sediment, which was then dried and dissolved in water. mRNA was isolated from the whole RNAs as followings. In view of the fact that a poly A chain is attached to the 3′ terminus of mRNA, a polynucleotide having a poly T structure which was immobilized on the surface of latex beads was used to trap the mRNA, and then the mRNA was washed and eluted with spine column (Oligotex-dT30<Super>mRNA Purification Kit, Takara). Reverse transcription of the mRNA was conducted with a reverse transcriptase (Super Script II Reverse Transcriptase; catalogue No. 18064-014, GibcoBRL) using fluorescence-labeled nucleotides to give cDNAs that were introduced with Cy3-dUTP or Cy5-dUTP during the reverse transcription.
The labeled cDNAs were dissolved in TE buffer (10mM Tris-HCl/1 mM EDTA, pH8.0), and the solution was dropped on the DNA chip containing the whole genes of yeast (DNA Chip Research Inc. Japan) so that the cDNAs were hybridized on the DNA chip at 65° C. for over 12 hours. The fluoresces intensity of the DNA chip was read with a scanner, and the ratio relative to the fluorescence intensity resulting from the absence of chemical substance was estimated as the following, which is shown in Tables 1 to 9: […]

Substance: Na2As [(1)]
- The level of expressed mRNA in the presence of chemical substance/The level of expressed mRNA in the absence of chemical substance (yeast gene YAL012W): 1.1
- The level of expressed mRNA in the presence of chemical substance/The level of expressed mRNA in the absence of chemical substance (yeast gene YAL038W): 1.0
- level of expressed mRNA in the presence/in the absence of chemical substance (yeast gene YBR003W): 0.9
- level of expressed mRNA in the presence/in the absence of chemical substance (yeast gene YBR011C): 1.3
- level of expressed mRNA in the presence/in the absence of chemical substance (yeast gene YBR020W): 1.0
- The level of expressed mRNA in the presence of chemical substance/The level of expressed mRNA in the absence of chemical substance (yeast gene YBR023C): 0.5
- The level of expressed mRNA in the presence of chemical substance/The level of expressed mRNA in the absence of chemical substance (yeast gene YBR029C): 0.7
- The level of expressed mRNA in the presence of chemical substance/The level of expressed mRNA in the absence of chemical substance (yeast gene YBR183W): 1.8
- The level of expressed mRNA in the presence of chemical substance/The level of expressed mRNA in the absence of chemical substance (yeast gene YBR222C): 0.6
- The level of expressed mRNA in the presence of chemical substance/The level of expressed mRNA in the absence of chemical substance (yeast gene YBR256C): 3.0
- The level of expressed mRNA in the presence of chemical substance/The level of expressed mRNA in the absence of chemical substance (yeast gene YCL009C): 0.6
- The level of expressed mRNA in the presence of chemical substance/The level of expressed mRNA in the absence of chemical substance (yeast gene YCL064C): 0.6
- level of expressed mRNA in the presence/in the absence of chemical substance (yeast gene YCR010C): 1.6
- level of expressed mRNA in the presence/in the absence of chemical substance (yeast gene YCR034W): 0.8
- The level of expressed mRNA in the presence of chemical substance/The level of expressed mRNA in the absence of chemical substance (yeast gene YCR048W): 0.5
- The level of expressed mRNA in the presence of chemical substance/The level of expressed mRNA in the absence of chemical substance (yeast gene YCR098C): 1.6
- The level of expressed mRNA in the presence of chemical substance/The level of expressed mRNA in the absence of chemical substance (yeast gene YDR019C): 1.4
- level of expressed mRNA in the presence/in the absence of chemical substance (yeast gene YDR050C): 1.6
- level of expressed mRNA in the presence/in the absence of chemical substance (yeast gene YDR073W): 1.7
- level of expressed mRNA in the presence/in the absence of chemical substance (yeast gene YDR123C): 1.2
- level of expressed mRNA in the presence/in the absence of chemical substance (yeast gene YDR178W): 2.0
- level of expressed mRNA in the presence/in the absence of chemical substance (yeast gene YDR277C): 1.6
- level of expressed mRNA in the presence/in the absence of chemical substance (yeast gene YDR284C): 0.8
- level of expressed mRNA in the presence/in the absence of chemical substance (yeast gene YDR345C): 0.8
- The level of expressed mRNA in the presence of chemical substance/The level of expressed mRNA in the absence of chemical substance (yeast gene YDR380W): 0.8
- level of expressed mRNA in the presence/in the absence of chemical substance (yeast gene YDR400W): 1.0
- level of expressed mRNA in the presence/in the absence of chemical substance (yeast gene YDR408C): 1.0
- level of expressed mRNA in the presence/in the absence of chemical substance (yeast gene YDR483W): 1.1
- The level of expressed mRNA in the presence of chemical substance/The level of expressed mRNA in the absence of chemical substance (yeast gene YDR497C): 0.7
- The level of expressed mRNA in the presence of chemical substance/The level of expressed mRNA in the absence of chemical substance (yeast gene YDR502C): 1.2
- The level of expressed mRNA in the presence of chemical substance/The level of expressed mRNA in the absence of chemical substance (yeast gene YDR516C): 1.2
- level of expressed mRNA in the presence/in the absence of chemical substance (yeast gene YEL063C): 0.7
- level of expressed mRNA in the presence/in the absence of chemical substance (yeast gene YER015W): 0.7
- The level of expressed mRNA in the presence of chemical substance/The level of expressed mRNA in the absence of chemical substance (yeast gene YER026C): 0.8
- The level of expressed mRNA in the presence of chemical substance/The level of expressed mRNA in the absence of chemical substance (yeast gene YER053C): 1.6
- The level of expressed mRNA in the presence of chemical substance/The level of expressed mRNA in the absence of chemical substance (yeast gene YER069W): 1.3
- level of expressed mRNA in the presence/in the absence of chemical substance (yeast gene YER081W): 1.6
- The level of expressed mRNA in the presence of chemical substance/The level of expressed mRNA in the absence of chemical substance (yeast gene YER096W): 1.1
- level of expressed mRNA in the presence/in the absence of chemical substance (yeast gene YER120W): 0.9
- The level of expressed mRNA in the presence of chemical substance/The level of expressed mRNA in the absence of chemical substance (yeast gene YER178W): 0.8
- level of expressed mRNA in the presence/in the absence of chemical substance (yeast gene YFL011W): 1.2
- The level of expressed mRNA in the presence of chemical substance/The level of expressed mRNA in the absence of chemical substance (yeast gene YFL014W): 3.4
- The level of expressed mRNA in the presence of chemical substance/The level of expressed mRNA in the absence of chemical substance (yeast gene YFL030W): 1.6
- The level of expressed mRNA in the presence of chemical substance/The level of expressed mRNA in the absence of chemical substance (yeast gene YFL031W): 0.5
- The level of expressed mRNA in the presence of chemical substance/The level of expressed mRNA in the absence of chemical substance (yeast gene YFL056C): 19.0
- The level of expressed mRNA in the presence of chemical substance/The level of expressed mRNA in the absence of chemical substance (yeast gene YFL057C): 20.9
- The level of expressed mRNA in the presence of chemical substance/The level of expressed mRNA in the absence of chemical substance (yeast gene YFR047C): 1.3
- level of expressed mRNA in the presence/in the absence of chemical substance (yeast gene YGL012W): 1.0
- The level of expressed mRNA in the presence of chemical substance/The level of expressed mRNA in the absence of chemical substance (yeast gene YGL022W): 0.5
- level of expressed mRNA in the presence/in the absence of chemical substance (yeast gene YGL115W): 0.9
- The level of expressed mRNA in the presence of chemical substance/The level of expressed mRNA in the absence of chemical substance (yeast gene YGL126W): 0.6
- level of expressed mRNA in the presence/in the absence of chemical substance (yeast gene YGL205W): 0.9
- The level of expressed mRNA in the presence of chemical substance/The level of expressed mRNA in the absence of chemical substance (yeast gene YGL209W): 1.2
- The level of expressed mRNA in the presence of chemical substance/The level of expressed mRNA in the absence of chemical substance (yeast gene YGL248W): 1.3
- The level of expressed mRNA in the presence of chemical substance/The level of expressed mRNA in the absence of chemical substance (yeast gene YGR037C): 1.0
- The level of expressed mRNA in the presence of chemical substance/The level of expressed mRNA in the absence of chemical substance (yeast gene YGR055W): 2.5
- level of expressed mRNA in the presence/in the absence of chemical substance (yeast gene YGR096W): 1.5
- level of expressed mRNA in the presence/in the absence of chemical substance (yeast gene YGR191W): 0.8
- The level of expressed mRNA in the presence of chemical substance/The level of expressed mRNA in the absence of chemical substance (yeast gene YGR194C): 0.9
- level of expressed mRNA in the presence/in the absence of chemical substance (yeast gene YGR204W): 0.5
- The level of expressed mRNA in the presence of chemical substance/The level of expressed mRNA in the absence of chemical substance (yeast gene YGR256W): 1.2
- The level of expressed mRNA in the presence of chemical substance/The level of expressed mRNA in the absence of chemical substance (yeast gene YGR282C): 1.3
- level of expressed mRNA in the presence/in the absence of chemical substance (yeast gene YGR288W): 0.9
- level of expressed mRNA in the presence/in the absence of chemical substance (yeast gene YHR025W): 0.6
- The level of expressed mRNA in the presence of chemical substance/The level of expressed mRNA in the absence of chemical substance (yeast gene YHR111W): 1.4
- level of expressed mRNA in the presence/in the absence of chemical substance (yeast gene YHR123W): 0.7
- The level of expressed mRNA in the presence of chemical substance/The level of expressed mRNA in the absence of chemical substance (yeast gene YHR137W): 0.7
- The level of expressed mRNA in the presence of chemical substance/The level of expressed mRNA in the absence of chemical substance (yeast gene YHR174W): 1.1
- The level of expressed mRNA in the presence of chemical substance/The level of expressed mRNA in the absence of chemical substance (yeast gene YHR176W): 1.8
- level of expressed mRNA in the presence/in the absence of chemical substance (yeast gene YHR210C): 1.3
- level of expressed mRNA in the presence/in the absence of chemical substance (yeast gene YIL006W): 1.0
- The level of expressed mRNA in the presence of chemical substance/The level of expressed mRNA in the absence of chemical substance (yeast gene YIL045W): 1.7
- The level of expressed mRNA in the presence of chemical substance/The level of expressed mRNA in the absence of chemical substance (yeast gene YIL107C): 1.5
- The level of expressed mRNA in the presence of chemical substance/The level of expressed mRNA in the absence of chemical substance (yeast gene YIL154C): 0.8
- The level of expressed mRNA in the presence of chemical substance/The level of expressed mRNA in the absence of chemical substance (yeast gene YIL155C): 1.0
- The level of expressed mRNA in the presence of chemical substance/The level of expressed mRNA in the absence of chemical substance (yeast gene YIR034C): 1.2
- The level of expressed mRNA in the presence of chemical substance/The level of expressed mRNA in the absence of chemical substance (yeast gene YIR036C): 1.0
- The level of expressed mRNA in the presence of chemical substance/The level of expressed mRNA in the absence of chemical substance (yeast gene YJL031C): 1.6
- The level of expressed mRNA in the presence of chemical substance/The level of expressed mRNA in the absence of chemical substance (yeast gene YJL068C): 1.2
- The level of expressed mRNA in the presence of chemical substance/The level of expressed mRNA in the absence of chemical substance (yeast gene YJL088W): 0.9
- The level of expressed mRNA in the presence of chemical substance/The level of expressed mRNA in the absence of chemical substance (yeast gene YJL099W): 1.2
- level of expressed mRNA in the presence/in the absence of chemical substance (yeast gene YJL121C): 1.0
- level of expressed mRNA in the presence/in the absence of chemical substance (yeast gene YJL167W): 0.9
- The level of expressed mRNA in the presence of chemical substance/The level of expressed mRNA in the absence of chemical substance (yeast gene YJL172W): 0.8
- level of expressed mRNA in the presence/in the absence of chemical substance (yeast gene YJL216C): 0.8
- The level of expressed mRNA in the presence of chemical substance/The level of expressed mRNA in the absence of chemical substance (yeast gene YJL219W): 1.2
- level of expressed mRNA in the presence/in the absence of chemical substance (yeast gene YJR077C): 1.1
- The level of expressed mRNA in the presence of chemical substance/The level of expressed mRNA in the absence of chemical substance (yeast gene YJR137C): 2.7
- level of expressed mRNA in the presence/in the absence of chemical substance (yeast gene YJR143C): 0.6
- The level of expressed mRNA in the presence of chemical substance/The level of expressed mRNA in the absence of chemical substance (yeast gene YJR148W): 0.7
